Experimental data from patent US11078496B2, “System for F-box hormone receptor regulated protein expression in mammalian cells” (ICAHN SCHOOL OF MEDICINE AT MOUNT SINAI, priority 2016, dated 2021).

Key:
[1] = tested on: CCE A-CHK1 clone #2 cells; assay: Competition assay of A-CHK1 clone #2 cells against GFP-A CCE cells; format: cell-based, mouse; conditions: 50 μM IAA-treated A-CHK1 cells compared to the EtOH-treated controls
Protocol: FIGS. 6A-6E show CHK1 depletion under normal growth conditions in mESCs. FIG. 6A show images of cells assayed for alkaline phosphatase activity. CCE mESCs were infected with pRAIDRS GFP-A or A-CHK1 and selected in the presence of EtOH (“Con”) or auxin (“IAA”). After colonies emerged, cells were assayed for alkaline phosphatase activity. Left, low magnification scans. Right, bright-field microscope images. Scale bars, 100 μm. […] FIG. 6B are graphs showing populations doubling, following selection, of the indicated clones cultured in the presence of 0.01% EtOH (solid lines) or 50 μM IAA (dashed lines). Cells were counted and replated every 3-4 days and population doublings were calculated as Log2 (cell output/cell input). Experiment was conducted once for these clones. […] Cells were collected every 2-3 days and assayed for GFP and mCherry fluorescence by flow cytometry. The percentage of A-CHK1 cells was calculated for each time point and the values for the auxin-treated cells were normalized to those of EtOH-treated cells. An average growth rate decrease of 8% per day was calculated for auxin-treated A-CHK1 cells compared to the EtOH-treated controls. […] In FIG. 6E, the indicated clones were treated with 0.01% EtOH or 50 μM auxin (“IAA”) for 3 days and analyzed for the expression of self-renewal and differentiation markers by QRT-PCR. […]

J-p53 (OsJAZ^33-p53) = assay: Coronatine-dependent degradation of J-p53 in H9 hESCs (western blot quantification); format: cell-based, human; conditions: 50 μM coronatine, 1 day
Protocol: FIGS. 11A-11G illustrate a coronatine-induced degradation rescue system. […] GFP fluorescence was measured by flow cytometry and % degradation was calculated. The corresponding components and biological replicate number (n) are indicated. The bar for pJAZ 6-Os23 is in grey color, to indicate reduced GFP fluorescence in non-treated cells (FIG. 10F). […] GFP fluorescence was measured using flow cytometry. The experiment was repeated three times, and representative results are presented. In FIGS. 11C-11D, H9 hESCs were infected with pJAZ NLS-GFP-OsJAZ^33 (“GFP-J”) or pJAZ OsJAZ^33-p^53 (“J-p53”) that harbors an shRNA targeting the 3′-UTR of p53 and an OsJAZ^33degron-fused p53 coding sequence lacking UTRs. […] P-values were calculated using unpaired Student's t-test. […] After 24 hours, microscopic bright-field (“BF”) and fluorescence images were taken (FIG. 11E, scale bars, 100 μm) and cells were subjected to flow analysis (FIG. 11F, contour plots; FIG. 11G, quantification, error bars represent standard deviation.). […]
Cells were lysed in RIPA-B buffer (20 mM Na2HPO4 pH 7.4, 150 mM NaCl and 1% Triton X-100) supplemented with Protease Inhibitor Cocktail (Roche) for 30 minutes on ice with occasional vortexing, followed by 30 minutes centrifugation at 13,000 relative centrifugal force at 4° C. […] Luminescence was detected with X-ray films, which were scanned, or using the Bio-Rad ChemiDoc MP System. […]

Row | SMILES | average growth rate decrease [1] [% per day] | coronatine-dependent degradation of J-p53 (J-p53 (OsJAZ^33-p53)) [%]
1 | O=C(O)Cc1c[nH]c2ccccc12 [auxin, indole-3-acetic acid] | 8 | 
2 | CC[C@H]1C=C(C(=O)N[C@@]2(C(=O)O)C[C@@H]2CC)[C@H]2CCC(=O)[C@H]2C1 [coronatine, Coronatine] |  | 90
